# Results as given in DBAASP.
# Columns and labels:
# Assay in all cases: ≥ marks a high value that may be exact or a test limit, other limits are often not marked, values filed in µg/mL are converted to µM
# [1] = test system: Streptococcus thermophilus YM-C
# [2] = test system: Staphylococcus aureus ATCC 25923
# [3] = test system: Staphylococcus aureus ATCC 29213
# [4] = test system: Streptococcus agalactiae CICC 10465
# [5] = test system: Lacticaseibacillus rhamnosus 7469
# [6] = test system: Salmonella enterica subsp. enterica serovar Typhimurium C77-31
# [7] = test system: Pseudomonas aeruginosa ATCC 27853
# [8] = test system: Salmonella enterica subsp. enterica serovar Typhimurium ATCC 14028
# [9] = test system: Staphylococcus epidermidis ATCC 12228
# Streptococcus agalactiae = test system: Streptococcus agalactiae
# Escherichia coli UB1005 = test system: Escherichia coli UB1005
# [10] = test system: Salmonella enterica subsp. enterica serovar Pullorum ATCC 7913
# Escherichia coli 078 = test system: Escherichia coli 078
# [11] = test system: Escherichia coli ATCC 25922
# [12] = test system: Bacillus subtilis ATCC 6633
# [13] = test system: Serratia marcescens ATCC 4112
# Micrococcus luteus A270 = test system: Micrococcus luteus A270
# [14] = test system: Candida tropicalis IOC 4560
# [15] = test system: Enterobacter cloacae beta-12
# Escherichia coli SBS 363 = test system: Escherichia coli SBS 363
# Candida albicans MDM8 = test system: Candida albicans MDM8
# [16] = test system: Bacillus megaterium ATCC 10778
# [17] = test system: Micrococcus luteus CCM 144
# Pseudomonas aeruginosa = test system: Pseudomonas aeruginosa
# Bacillus subtilis 168 = test system: Bacillus subtilis 168
# Staphylococcus aureus = test system: Staphylococcus aureus
# [18] = test system: Candida albicans F7-39/IDE99
# Escherichia coli B = test system: Escherichia coli B
# [19] = test system: Staphylococcus epidermidis C621
# [20] = test system: Corynebacterium xerosis C875
# Escherichia coli DC2 = test system: Escherichia coli DC2
MIC [1] [µM],MIC [2] [µM],MIC [3] [µM],MIC [4] [µM],MIC [5] [µM],MIC [6] [µM],MIC [7] [µM],MIC [8] [µM],MIC [9] [µM],MIC (Streptococcus agalactiae) [µM],MIC (Escherichia coli UB1005) [µM],MIC [10] [µM],MIC (Escherichia coli 078) [µM],MIC [11] [µM],Compound,further results
≥ 64,> 64,4,4,≥ 64,≥ 64,> 64,> 64,4,8,≥ 32,8,≥ 32,8,CC[C@H](C)[C@H](NC(=O)[C@H](CC(C)C)NC(=O)[C@@H](NC(=O)[C@@H](N)CC(=O)O)[C@@H](C)CC)C(=O)N[C@H](C(=O)N[C@H](C(=O)NCC(=O)NCC(=O)N[C@@H](CCCCN)C(=O)N[C@@H](CC(=O)O)C(=O)N[C@@H](CCCN=C(N)N)C(=O)N[C@@H](CCCCN)C(=O)N[C@@H](CCCCN)C(=O)N[C@@H](CCCN=C(N)N)C(=O)N[C@@H](CCCN=C(N)N)C(=O)N[C@@H](CCCN=C(N)N)C(N)=O)C(C)C)[C@@H](C)CC [DILIIVGGKDRKKRRR],–
≥ 64,> 64,> 64,8,≥ 64,≥ 64,> 64,> 64,> 64,5.66,≥ 64,≥ 64,≥ 64,> 64,CC[C@H](C)[C@H](NC(=O)[C@H](CC(C)C)NC(=O)[C@@H](NC(=O)[C@@H](N)CC(=O)O)[C@@H](C)CC)C(=O)N[C@H](C(=O)N[C@H](C(=O)NCC(=O)NCC(=O)N[C@@H](CCCCN)C(=O)N[C@@H](CCCN=C(N)N)C(=O)N[C@@H](CCCN=C(N)N)C(=O)N[C@@H](CCCN=C(N)N)C(N)=O)C(C)C)[C@@H](C)CC [DILIIVGGKRRR],–
≥ 64,4,2,4,≥ 64,≥ 64,8,> 64,8,5.66,8,8,≥ 32,4,CC[C@H](C)[C@H](NC(=O)[C@H](CC(C)C)NC(=O)[C@@H](NC(=O)[C@@H](N)CC(=O)O)[C@@H](C)CC)C(=O)N[C@H](C(=O)N[C@H](C(=O)NCC(=O)NCC(=O)N[C@@H](CCCN=C(N)N)C(=O)N[C@@H](CCCN=C(N)N)C(=O)N[C@@H](CCCN=C(N)N)C(=O)N[C@@H](CCCN=C(N)N)C(=O)N[C@@H](CCCN=C(N)N)C(=O)N[C@@H](CCCN=C(N)N)C(=O)N[C@@H](CCCN=C(N)N)C(=O)N[C@@H](CCCN=C(N)N)C(N)=O)C(C)C)[C@@H](C)CC [DILIIVGGRRRRRRRR],–
–,–,> 50,–,–,–,> 50,–,–,–,–,–,–,–,CC(C)C[C@H](NC(=O)[C@H](C)NC(=O)CNC(=O)[C@H](CC(C)C)NC(=O)[C@@H](N)Cc1ccccc1)C(=O)N[C@@H](Cc1c[nH]c2ccccc12)C(=O)N[C@@H](CC(N)=O)C(=O)N1CCC[C@H]1C(=O)N[C@@H](C)C(=O)N[C@@H](CCCCN)C(=O)N[C@@H](CO)C(=O)N[C@H](C(=O)N[C@@H](Cc1ccccc1)C(N)=O)C(C)C [FLGALWNPAKSVF],MIC [12]: ≥ 50 µM; MIC [13]: 12.5 µM; MIC (Micrococcus luteus A270): 25 µM; MIC [14]: ≥ 50 µM; MIC [15]: ≥ 50 µM; MIC (Escherichia coli SBS 363): ≥ 50 µM; MIC (Candida albicans MDM8): ≥ 50 µM; MIC [16]: ≥ 50 µM
–,–,0.8,–,–,–,–,–,3.1,–,–,–,–,–,CC(C)C[C@H](NC(=O)[C@H](C)NC(=O)[C@H](CCCCN)NC(=O)[C@H](CC(C)C)NC(=O)[C@@H](N)Cc1ccccc1)C(=O)N[C@@H](Cc1c[nH]c2ccccc12)C(=O)N[C@@H](CCCCN)C(=O)N[C@H](C(=O)N[C@@H](C)C(=O)N[C@@H](CCCCN)C(=O)N[C@@H](CO)C(=O)N[C@H](C(=O)N[C@@H](Cc1ccccc1)C(N)=O)C(C)C)C(C)C [FLKALWKVAKSVF],MIC [13]: 0.1 µM; MIC (Micrococcus luteus A270): 0.4 µM; MIC [14]: 0.8 µM; MIC [15]: 3.1 µM; MIC (Escherichia coli SBS 363): 1.6 µM; MIC (Candida albicans MDM8): 1.6 µM; MIC [16]: 0.4 µM
–,–,–,–,–,–,–,–,–,–,–,–,–,–,CC[C@H](C)[C@H](NC(=O)[C@H](CC(C)C)NC(=O)[C@H](CCCCN)NC(=O)[C@@H](NC(=O)[C@@H](NC(=O)[C@H](Cc1cnc[nH]1)NC(=O)[C@@H]1CCCN1C(=O)[C@H](CC(C)C)NC(=O)[C@@H](NC(=O)[C@H](CCCCN)NC(=O)[C@H](C)NC(=O)[C@H](CC(C)C)NC(=O)[C@H](CC(C)C)NC(=O)[C@H](CCCCN)NC(=O)[C@H](C)NC(=O)[C@H](CCSC)NC(=O)CN)C(C)C)C(C)C)C(C)C)C(=O)N[C@@H](CCCCN)C(=O)O [GMAKLLAKVLPHVVKLIK],MIC [17]: 0.8 µM; MIC (Pseudomonas aeruginosa): 17.5 µM; MIC (Bacillus subtilis 168): 1.3 µM; MIC (Staphylococcus aureus): 2.7 µM; MIC [18]: 13.1 µM; MIC (Escherichia coli B): 1.5 µM
≥ 64,> 64,> 64,≥ 64,≥ 64,≥ 64,> 64,> 64,> 64,≥ 64,≥ 64,≥ 64,≥ 64,> 64,NCCCC[C@H](NC(=O)[C@H](CCCCN)NC(=O)[C@H](CCCN=C(N)N)NC(=O)[C@H](CCC(=O)O)NC(=O)[C@@H](N)CCCCN)C(=O)N[C@@H](CCCN=C(N)N)C(=O)N[C@@H](CCCN=C(N)N)C(=O)N[C@@H](CCCN=C(N)N)C(N)=O [KERKKRRR],–
–,–,–,–,–,–,–,–,–,–,≥ 32,–,–,–,CC[C@H](C)[C@H](NC(=O)[C@H](C)NC(=O)[C@H](C)NC(=O)[C@H](C)NC(=O)[C@H](CCCCN)NC(=O)[C@@H](N)CCCCN)C(=O)N[C@@H](C)C(=O)N[C@@H](C)C(=O)N[C@@H](C)C(=O)N[C@@H](C)C(=O)N[C@@H](C)C(=O)N[C@H](C(=O)N[C@@H](C)C(=O)N[C@@H](C)C(=O)N[C@@H](Cc1c[nH]c2ccccc12)C(=O)N[C@@H](C)C(=O)N[C@@H](C)C(=O)N[C@H](C(=O)N[C@@H](C)C(=O)N[C@@H](C)C(=O)N[C@@H](C)C(=O)N[C@@H](CCCCN)C(=O)N[C@@H](CCCCN)C(=O)N[C@@H](CCCCN)C(=O)N[C@@H](CCCCN)C(N)=O)[C@@H](C)CC)[C@@H](C)CC [KKAAAIAAAAAIAAWAAIAAAKKKK],MIC [19]: 4 µM; MIC [20]: 0.25 µM; MIC (Escherichia coli DC2): 16 µM
–,–,–,–,–,–,–,–,–,–,–,–,–,–,CC[C@H](C)[C@H](NC(=O)[C@H](CCCCN)NC(=O)CNC(=O)[C@H](Cc1c[nH]c2ccccc12)NC(=O)[C@H](CC(N)=O)NC(=O)[C@@H](N)CC(C)C)C(=O)N[C@@H](CC(C)C)C(=O)N[C@@H](CCCCN)C(=O)N[C@@H](Cc1cnc[nH]1)C(=O)N[C@H](C(=O)N[C@H](C(=O)N[C@@H](CCCCN)C(N)=O)[C@@H](C)CC)[C@@H](C)CC [LNWGKILKHIIK],MIC [17]: 2.2 µM; MIC (Pseudomonas aeruginosa): 20.8 µM; MIC (Bacillus subtilis 168): 1.7 µM; MIC (Staphylococcus aureus): 8.7 µM; MIC [18]: 7.3 µM; MIC (Escherichia coli B): 4 µM
